Earlier results on one compound are cited in patent publication US20140037570A1, “NBPT solution for preparing urease inhibited urea fertilizers prepared from N-alkyl; N, N-alkyl; and N-alkyl-N-alkoxy amino alcohols” (Whitehurst Associates Inc., priority 2012, published 2014).

For the series the following is noted: background statement on NBPT.

In the case of `CCCCNP(N)(N)=S` [NBPT, N-(n-butyl)thiophosphoric triamide], the stability entry is “thermally unstable”.
